Common to all, as to assay type: biochemical
For one test, the target named is PDE9 (Homo sapiens (Human), UniProt O76083). Put plainly: PDE9 inhibition assay, SPA with 3H-cAMP. As to the method: A PDE9 assay may for example, be performed as follows: The assay is performed in 60 μL samples containing a fixed amount of the relevant PDE enzyme (sufficient to convert 20-25% of the cyclic nucleotide substrate), a buffer (50 mM HEPES pH 7.6; 10 mM MgCl2; 0.02% Tween20), 0.1 mg/mi BSA, 225 pCi of ^3H-labelled cyclic nucleotide substrate, tritium labeled cAMP to a final concentration of 5 nM and varying amounts of inhibitors. Reactions are initiated by addition of the cyclic nucleotide substrate, and reactions are allowed to proceed for one hr at room temperature before being terminated through mixing with 15 μL 8 mg/mL yttrium silicate SPA beads (Amersham). The beads are allowed to settle for one hr in the dark before the plates are counted in a Wallac 1450 Microbeta counter.
Sequence of PDE9 (O76083 whole entry): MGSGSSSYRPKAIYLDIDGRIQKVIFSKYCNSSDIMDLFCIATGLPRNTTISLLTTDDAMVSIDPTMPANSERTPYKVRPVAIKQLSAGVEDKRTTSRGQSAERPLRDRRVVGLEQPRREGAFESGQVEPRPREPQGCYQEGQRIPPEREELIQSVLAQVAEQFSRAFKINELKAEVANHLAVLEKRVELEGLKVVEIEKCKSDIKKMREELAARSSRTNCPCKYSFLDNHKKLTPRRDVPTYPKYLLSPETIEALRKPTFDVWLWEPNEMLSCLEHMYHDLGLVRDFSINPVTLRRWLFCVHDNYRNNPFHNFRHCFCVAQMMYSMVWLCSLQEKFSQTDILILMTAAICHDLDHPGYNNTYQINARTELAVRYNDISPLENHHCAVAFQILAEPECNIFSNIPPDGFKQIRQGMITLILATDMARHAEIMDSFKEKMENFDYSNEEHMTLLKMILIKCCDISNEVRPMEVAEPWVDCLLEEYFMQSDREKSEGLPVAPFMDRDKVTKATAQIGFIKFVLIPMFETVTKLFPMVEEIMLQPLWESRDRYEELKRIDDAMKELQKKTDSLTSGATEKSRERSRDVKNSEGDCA
In the context of the present invention the assay was performed in 60 μL assay buffer (50 mM HEPES pH 7.6; 10 mM MgCl2; 0.02% Tween20) containing enough PDE9 to convert 20-25% of 10 nM ^3H-cAMP and varying amounts of inhibitors. Following a 1 hr incubation the reactions were terminated by addition of 15 μL 8 mg/mL yttrium silicate SPA beads (Amersham). The beads were allowed to settle for one hr in the dark before the plates were counted in a Wallac 1450 Microbeta counter.

For another test, the target named is PDE1B (Homo sapiens (Human), UniProt Q01064). In words: PDE1 inhibition assay (PDE1B), SPA with tritium labelled cAMP. How it is done:
(§1) Reactions were initiated by addition of the cyclic nucleotide substrate, and reactions were allowed to proceed for 1 h at room temperature before being terminated through mixing with 20 μL (0.2 mg) yttrium silicate SPA beads (PerkinElmer). The beads were allowed to settle for 1 h in the dark before the plates were counted in a Wallac 1450 Microbeta counter.

For the next test, the target named is PDE1A (Homo sapiens (Human), UniProt P54750). In words: PDE1 inhibition assay (PDE1A), SPA with tritium labelled cAMP. The conditions noted are these: for inhibition at 2 µM: read-out: PDE1A, % inhibition at 2 μM. As to the method: Reactions were initiated by addition of the cyclic nucleotide substrate, and reactions were allowed to proceed for 1 h at room temperature before being terminated through mixing with 20 μL (0.2 mg) yttrium silicate SPA beads (PerkinElmer).
Sequence of PDE1A (P54750 whole entry): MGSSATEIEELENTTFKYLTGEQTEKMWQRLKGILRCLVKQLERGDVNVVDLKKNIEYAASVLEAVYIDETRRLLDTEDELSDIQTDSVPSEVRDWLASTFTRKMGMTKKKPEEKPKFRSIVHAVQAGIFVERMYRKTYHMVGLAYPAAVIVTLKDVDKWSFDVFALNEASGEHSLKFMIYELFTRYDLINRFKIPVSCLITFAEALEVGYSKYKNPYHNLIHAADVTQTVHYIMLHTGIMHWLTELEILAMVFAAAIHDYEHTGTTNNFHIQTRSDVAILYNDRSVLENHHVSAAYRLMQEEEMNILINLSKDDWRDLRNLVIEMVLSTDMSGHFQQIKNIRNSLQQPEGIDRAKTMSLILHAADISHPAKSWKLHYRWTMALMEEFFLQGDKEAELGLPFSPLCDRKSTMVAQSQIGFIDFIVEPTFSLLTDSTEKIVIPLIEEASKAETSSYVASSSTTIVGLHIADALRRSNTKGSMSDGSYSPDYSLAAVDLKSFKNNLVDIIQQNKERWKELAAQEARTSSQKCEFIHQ

Another test concerns the target PDE1C (Homo sapiens (Human), UniProt Q14123). Put plainly: PDE1 inhibition assay (PDE1C), SPA with tritium labelled cAMP. As to the method:
as §1

SMILES strings stand for the structures.

Sequence of PDE1C (Q14123 whole entry): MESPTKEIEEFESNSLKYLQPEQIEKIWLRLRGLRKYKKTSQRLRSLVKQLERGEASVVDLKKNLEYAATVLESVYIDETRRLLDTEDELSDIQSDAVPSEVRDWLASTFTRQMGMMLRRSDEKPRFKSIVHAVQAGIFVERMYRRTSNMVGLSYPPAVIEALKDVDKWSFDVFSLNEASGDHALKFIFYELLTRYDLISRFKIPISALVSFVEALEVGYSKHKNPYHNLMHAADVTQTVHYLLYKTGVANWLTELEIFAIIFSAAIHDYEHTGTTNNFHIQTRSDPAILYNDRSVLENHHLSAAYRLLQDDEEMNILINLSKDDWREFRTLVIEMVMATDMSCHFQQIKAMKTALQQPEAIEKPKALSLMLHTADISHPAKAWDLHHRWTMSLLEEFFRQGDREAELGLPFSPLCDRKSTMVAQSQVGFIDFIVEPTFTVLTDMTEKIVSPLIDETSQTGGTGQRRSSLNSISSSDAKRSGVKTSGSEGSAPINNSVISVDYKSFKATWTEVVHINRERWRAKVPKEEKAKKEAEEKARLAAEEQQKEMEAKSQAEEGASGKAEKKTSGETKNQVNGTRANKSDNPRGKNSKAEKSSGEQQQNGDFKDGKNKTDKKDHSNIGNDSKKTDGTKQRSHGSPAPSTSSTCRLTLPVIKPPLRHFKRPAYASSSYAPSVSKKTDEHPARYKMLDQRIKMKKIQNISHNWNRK
Sequence of PDE1B (Q01064 whole entry): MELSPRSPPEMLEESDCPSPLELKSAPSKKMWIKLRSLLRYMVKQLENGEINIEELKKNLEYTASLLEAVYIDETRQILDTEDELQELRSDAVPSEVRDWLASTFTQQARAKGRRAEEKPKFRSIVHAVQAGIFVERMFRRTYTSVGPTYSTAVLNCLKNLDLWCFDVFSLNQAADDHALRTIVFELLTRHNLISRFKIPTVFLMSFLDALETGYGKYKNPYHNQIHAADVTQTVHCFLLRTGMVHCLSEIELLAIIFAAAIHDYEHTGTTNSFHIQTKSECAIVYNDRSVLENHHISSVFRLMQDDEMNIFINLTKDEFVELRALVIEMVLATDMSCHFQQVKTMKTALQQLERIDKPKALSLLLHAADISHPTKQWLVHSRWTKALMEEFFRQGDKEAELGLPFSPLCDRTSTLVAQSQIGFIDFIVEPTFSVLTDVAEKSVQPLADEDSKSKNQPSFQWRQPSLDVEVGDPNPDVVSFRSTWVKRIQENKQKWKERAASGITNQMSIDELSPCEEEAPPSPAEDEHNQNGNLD

`Cc1cn2c([C@@H]3C[C@H]3F)ncc2c(=O)n1Cc1cccc(F)c1` (single isomer, unassigned; isomer 1) [38, isomer 1]: on PDE9, the “% inhibition of PDE9 at 10 microM” value is recorded as −1%.

What is called IC50 is the concentration that gives 50% inhibition. A lower IC50 goes with greater potency. As to `COc1ccc(Cn2c(C)cn3c([C@H]4CCO[C@@H]4C)ncc3c2=O)cc1` (single isomer, unassigned; isomer 3) [55, isomer 3], inhibition at PDE1B was half-maximal at 3 nM (IC50).

`Cc1cn2c(N3CCC4OCC[C@H]43)ncc2c(=O)n1Cc1cccc(F)c1` (single isomer, unassigned; isomer 1) [99, isomer 1]: the IC50 against PDE1A was 241 nM; on PDE1B, 134 nM; at PDE1C, 27 nM. At PDE9, the “% inhibition of PDE9 at 10 microM” value is 9%.

In the case of `Cc1cn2c([C@H]3C[C@@H]3F)ncc2c(=O)n1Cc1cccc(F)c1` (single isomer, unassigned; isomer 2) [37, isomer 2], at PDE9, the “% inhibition of PDE9 at 10 microM” value is listed as 13%. Also, at PDE1C, it took 55 nM to reach half-maximal inhibition (IC50).

Consider `Cc1cn2c([C@@H]3C[C@@H]3F)ncc2c(=O)n1Cc1cccc(F)c1` (single isomer, unassigned; isomer 1) [37, isomer 1], for which the “% inhibition of PDE9 at 10 microM” value at PDE9 is −2%. Further, the 50% inhibitory concentration (IC50) at PDE1C amounted to 345 nM.

Regarding `Cc1cn2c(N3CCC4OCC[C@@H]43)ncc2c(=O)n1Cc1cccc(F)c1` (single isomer, unassigned; isomer 2) [99, isomer 2], the “PDE1A, % inhibition at 10 μM” value on PDE1A (at 10 μM) came to 47%. Also, on PDE9, the “% inhibition of PDE9 at 10 microM” value was determined as 6%. The IC50 on PDE1B was determined as 760 nM; against PDE1C, 119 nM.

For orientation: inhibition means the percentage by which the read-out fell short of the control. For the molecule `Cc1cn2c(C3CCOCC3)ncc2c(=O)n1Cc1cccc(C#N)c1` [Example 45, 3-((6-methyl-8-oxo-3-(tetrahydro-2H-pyran-4-yl)imidazo[1,5-a]pyrazin-7(8H)-yl)methyl)benzonitrile], the inhibition at 2 µM on PDE1A was determined as 64%.

On to `Cc1cn2c([C@H]3C[C@H]3F)ncc2c(=O)n1Cc1cccc(F)c1` (single isomer, unassigned; isomer 2) [38, isomer 2], for which the “% inhibition of PDE9 at 10 microM” value on PDE9 is 2%. At PDE1C, the IC50 was 153 nM.

`CCc1ccccc1Cn1c(C)cn2c(C3CCOCC3)ncc2c1=O` [Example 49, 7-(2-ethylbenzyl)-6-methyl-3-(tetrahydro-2H-pyran-4-yl)imidazo[1,5-a]pyrazin-8(7H)-one]: on PDE1A, the inhibition at 2 µM was 44%.

The values are drawn from US10905688B2, “Combinations comprising substituted imidazo[1,5-α]pyrazinones as PDE1 inhibitors” (H. Lundbeck A/S, priority 2016, dated 2021).
